# In PubChem BioAssay (NCI):
#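 96-well plates; 48 h exposure; 5 concentrations. Endpoints by linear interpolation between flanking doses. Not reached: highest tested concentration assigned. At the TGI there is no net growth.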
# Tests used:
# Test in all cases: growth of human tumour cells (NCI), 48 h
# 786-0 renal = test system: 786-0 renal
# A549 NSCLC = test system: A549 NSCLC
# ACHN renal = test system: ACHN renal
# BT-549 breast = test system: BT-549 breast
# CAKI-1 renal = test system: CAKI-1 renal
# CCRF-CEM leukemia = test system: CCRF-CEM leukemia
# COLO 205 colon = test system: COLO 205 colon
# DU-145 prostate = test system: DU-145 prostate
# EKVX NSCLC = test system: EKVX NSCLC
# HCC-2998 colon = test system: HCC-2998 colon
# HCT-116 colon = test system: HCT-116 colon
# HCT-15 colon = test system: HCT-15 colon
# HL-60(TB) leukemia = test system: HL-60(TB) leukemia
# HOP-62 NSCLC = test system: HOP-62 NSCLC
# HOP-92 NSCLC = test system: HOP-92 NSCLC
# HS 578T breast = test system: HS 578T breast
# HT29 colon = test system: HT29 colon
# IGROV1 ovarian = test system: IGROV1 ovarian
# K-562 leukemia = test system: K-562 leukemia
# KM12 colon = test system: KM12 colon
# LOX IMVI melanoma = test system: LOX IMVI melanoma
# M14 melanoma = test system: M14 melanoma
# MALME-3M melanoma = test system: MALME-3M melanoma
# MCF7 breast = test system: MCF7 breast
# MDA-MB-231 breast = test system: MDA-MB-231 breast
# MDA-MB-435 = test system: MDA-MB-435
# MDA-N = test system: MDA-N
# MOLT-4 leukemia = test system: MOLT-4 leukemia
# NCI-H226 lung = test system: NCI-H226 lung
# NCI-H23 lung = test system: NCI-H23 lung
# NCI-H460 lung = test system: NCI-H460 lung
# NCI/ADR-RES ovarian = test system: NCI/ADR-RES ovarian
# OVCAR-3 ovarian = test system: OVCAR-3 ovarian
# OVCAR-4 ovarian = test system: OVCAR-4 ovarian
# OVCAR-5 ovarian = test system: OVCAR-5 ovarian
# OVCAR-8 ovarian = test system: OVCAR-8 ovarian
# PC-3 prostate = test system: PC-3 prostate
# RPMI-8226 leukemia = test system: RPMI-8226 leukemia
# RXF 393 renal = test system: RXF 393 renal
# SF-268 CNS = test system: SF-268 CNS
# SF-295 CNS = test system: SF-295 CNS
# SF-539 CNS = test system: SF-539 CNS
# SK-MEL-2 melanoma = test system: SK-MEL-2 melanoma
# SK-MEL-28 melanoma = test system: SK-MEL-28 melanoma
# SK-MEL-5 melanoma = test system: SK-MEL-5 melanoma
# SK-OV-3 ovarian = test system: SK-OV-3 ovarian
# SN12C renal = test system: SN12C renal
# SNB-19 CNS = test system: SNB-19 CNS
# SR leukemia = test system: SR leukemia
# SW-620 colon = test system: SW-620 colon
# T-47D breast = test system: T-47D breast
# TK-10 renal = test system: TK-10 renal
# U251 CNS = test system: U251 CNS
# UACC-257 melanoma = test system: UACC-257 melanoma
# UACC-62 melanoma = test system: UACC-62 melanoma
# A498 renal = test system: A498 renal
# NCI-H522 lung = test system: NCI-H522 lung
# SNB-75 CNS = test system: SNB-75 CNS
# UO-31 renal = test system: UO-31 renal
smiles,measurement,setting,value
COc1cc2c(cc1OC)C(=O)/C(=C/c1ccc([N+](=O)[O-])cc1)CC2,TGI,786-0 renal,> 10 µM
same,TGI,A549 NSCLC,> 10 µM
same,TGI,ACHN renal,> 10 µM
same,TGI,BT-549 breast,> 10 µM
same,TGI,CAKI-1 renal,> 10 µM
same,TGI,CCRF-CEM leukemia,> 10 µM
same,TGI,COLO 205 colon,> 10 µM
same,TGI,DU-145 prostate,> 10 µM
same,TGI,EKVX NSCLC,> 10 µM
same,TGI,HCC-2998 colon,> 10 µM
same,TGI,HCT-116 colon,> 10 µM
same,TGI,HCT-15 colon,> 10 µM
same,TGI,HL-60(TB) leukemia,> 10 µM
same,TGI,HOP-62 NSCLC,> 10 µM
same,TGI,HOP-92 NSCLC,> 10 µM
same,TGI,HS 578T breast,> 10 µM
same,TGI,HT29 colon,> 10 µM
same,TGI,IGROV1 ovarian,> 10 µM
same,TGI,K-562 leukemia,> 10 µM
same,TGI,KM12 colon,> 10 µM
same,TGI,LOX IMVI melanoma,> 10 µM
same,TGI,M14 melanoma,> 10 µM
same,TGI,MALME-3M melanoma,> 10 µM
same,TGI,MCF7 breast,> 10 µM
same,TGI,MDA-MB-231 breast,> 10 µM
same,TGI,MDA-MB-435,> 10 µM
same,TGI,MDA-N,> 10 µM
same,TGI,MOLT-4 leukemia,> 10 µM
same,TGI,NCI-H226 lung,> 10 µM
same,TGI,NCI-H23 lung,> 10 µM
same,TGI,NCI-H460 lung,> 10 µM
same,TGI,NCI/ADR-RES ovarian,> 10 µM
same,TGI,OVCAR-3 ovarian,> 10 µM
same,TGI,OVCAR-4 ovarian,> 10 µM
same,TGI,OVCAR-5 ovarian,> 10 µM
same,TGI,OVCAR-8 ovarian,> 10 µM
same,TGI,PC-3 prostate,> 10 µM
same,TGI,RPMI-8226 leukemia,> 10 µM
same,TGI,RXF 393 renal,> 10 µM
same,TGI,SF-268 CNS,> 10 µM
same,TGI,SF-295 CNS,> 10 µM
same,TGI,SF-539 CNS,> 10 µM
same,TGI,SK-MEL-2 melanoma,> 10 µM
same,TGI,SK-MEL-28 melanoma,> 10 µM
same,TGI,SK-MEL-5 melanoma,> 10 µM
same,TGI,SK-OV-3 ovarian,> 10 µM
same,TGI,SN12C renal,> 10 µM
same,TGI,SNB-19 CNS,> 10 µM
same,TGI,SR leukemia,> 10 µM
same,TGI,SW-620 colon,> 10 µM
same,TGI,T-47D breast,> 10 µM
same,TGI,TK-10 renal,> 10 µM
same,TGI,U251 CNS,> 10 µM
same,TGI,UACC-257 melanoma,> 10 µM
same,TGI,UACC-62 melanoma,> 10 µM
CCOC(=O)c1cc(Br)c(-c2onc(C)c2Br)n1C,TGI,786-0 renal,86.1 µM
same,TGI,A498 renal,> 100 µM
same,TGI,A549 NSCLC,64.2 µM
same,TGI,ACHN renal,> 100 µM
same,TGI,BT-549 breast,> 100 µM
same,TGI,CAKI-1 renal,45.4 µM
same,TGI,CCRF-CEM leukemia,> 100 µM
same,TGI,COLO 205 colon,85.7 µM
same,TGI,DU-145 prostate,> 100 µM
same,TGI,EKVX NSCLC,85.6 µM
same,TGI,HCC-2998 colon,> 100 µM
same,TGI,HCT-116 colon,41.6 µM
same,TGI,HCT-15 colon,> 100 µM
same,TGI,HL-60(TB) leukemia,27.5 µM
same,TGI,HOP-62 NSCLC,> 100 µM
same,TGI,HS 578T breast,> 100 µM
same,TGI,IGROV1 ovarian,> 100 µM
same,TGI,K-562 leukemia,> 100 µM
same,TGI,KM12 colon,69.5 µM
same,TGI,LOX IMVI melanoma,> 100 µM
same,TGI,M14 melanoma,> 100 µM
same,TGI,MALME-3M melanoma,> 100 µM
same,TGI,MCF7 breast,77.5 µM
same,TGI,MDA-MB-231 breast,> 100 µM
same,TGI,MDA-MB-435,> 100 µM
same,TGI,MDA-N,> 100 µM
same,TGI,MOLT-4 leukemia,44.3 µM
same,TGI,NCI-H226 lung,> 100 µM
same,TGI,NCI-H23 lung,> 100 µM
same,TGI,NCI-H460 lung,> 100 µM
same,TGI,NCI-H522 lung,72.7 µM
same,TGI,NCI/ADR-RES ovarian,> 100 µM
same,TGI,OVCAR-3 ovarian,> 100 µM
same,TGI,OVCAR-4 ovarian,> 100 µM
same,TGI,OVCAR-5 ovarian,68.8 µM
same,TGI,OVCAR-8 ovarian,> 100 µM
same,TGI,PC-3 prostate,> 100 µM
same,TGI,RPMI-8226 leukemia,> 100 µM
same,TGI,RXF 393 renal,28.6 µM
same,TGI,SF-268 CNS,> 100 µM
same,TGI,SF-295 CNS,76.2 µM
same,TGI,SF-539 CNS,> 100 µM
same,TGI,SK-MEL-2 melanoma,> 100 µM
same,TGI,SK-MEL-28 melanoma,> 100 µM
same,TGI,SK-MEL-5 melanoma,32.4 µM
same,TGI,SK-OV-3 ovarian,59.8 µM
same,TGI,SN12C renal,56.8 µM
same,TGI,SNB-19 CNS,> 100 µM
same,TGI,SNB-75 CNS,53 µM
same,TGI,SR leukemia,92.9 µM
same,TGI,SW-620 colon,> 100 µM
same,TGI,T-47D breast,57.7 µM
same,TGI,TK-10 renal,> 100 µM
same,TGI,U251 CNS,> 100 µM
same,TGI,UACC-257 melanoma,> 100 µM
same,TGI,UACC-62 melanoma,> 100 µM
same,TGI,UO-31 renal,> 100 µM
O=C(O)c1ccc(NNC(=O)c2cccc3c(=O)c4ccccc4[nH]c23)cc1,TGI,786-0 renal,> 100 µM
same,TGI,A549 NSCLC,> 100 µM
same,TGI,ACHN renal,> 100 µM
same,TGI,BT-549 breast,> 100 µM
same,TGI,CAKI-1 renal,> 100 µM
same,TGI,CCRF-CEM leukemia,> 100 µM
same,TGI,COLO 205 colon,> 100 µM
same,TGI,DU-145 prostate,> 100 µM
same,TGI,EKVX NSCLC,> 100 µM
same,TGI,HCC-2998 colon,> 100 µM
same,TGI,HCT-116 colon,> 100 µM
same,TGI,HCT-15 colon,> 100 µM
same,TGI,HL-60(TB) leukemia,> 100 µM
same,TGI,HOP-62 NSCLC,> 100 µM
same,TGI,HOP-92 NSCLC,> 100 µM
same,TGI,HS 578T breast,> 100 µM
same,TGI,HT29 colon,> 100 µM
same,TGI,IGROV1 ovarian,> 100 µM
same,TGI,K-562 leukemia,> 100 µM
same,TGI,KM12 colon,> 100 µM
same,TGI,LOX IMVI melanoma,> 100 µM
same,TGI,M14 melanoma,> 100 µM
same,TGI,MALME-3M melanoma,> 100 µM
same,TGI,MCF7 breast,> 100 µM
same,TGI,MDA-MB-231 breast,> 100 µM
same,TGI,MDA-MB-435,> 100 µM
same,TGI,MDA-N,> 100 µM
same,TGI,MOLT-4 leukemia,> 100 µM
same,TGI,NCI-H226 lung,> 100 µM
same,TGI,NCI-H23 lung,> 100 µM
same,TGI,NCI-H460 lung,> 100 µM
same,TGI,NCI-H522 lung,96 µM
same,TGI,NCI/ADR-RES ovarian,> 100 µM
same,TGI,OVCAR-3 ovarian,> 100 µM
same,TGI,OVCAR-4 ovarian,> 100 µM
same,TGI,OVCAR-5 ovarian,> 100 µM
same,TGI,OVCAR-8 ovarian,> 100 µM
same,TGI,PC-3 prostate,> 100 µM
same,TGI,RPMI-8226 leukemia,> 100 µM
same,TGI,RXF 393 renal,> 100 µM
same,TGI,SF-268 CNS,> 100 µM
same,TGI,SF-295 CNS,> 100 µM
same,TGI,SF-539 CNS,> 100 µM
same,TGI,SK-MEL-2 melanoma,> 100 µM
same,TGI,SK-MEL-28 melanoma,> 100 µM
same,TGI,SK-MEL-5 melanoma,> 100 µM
same,TGI,SK-OV-3 ovarian,> 100 µM
same,TGI,SN12C renal,> 100 µM
same,TGI,SNB-19 CNS,> 100 µM
same,TGI,SNB-75 CNS,> 100 µM
same,TGI,SR leukemia,> 100 µM
same,TGI,SW-620 colon,> 100 µM
same,TGI,T-47D breast,> 100 µM
same,TGI,TK-10 renal,> 100 µM
same,TGI,U251 CNS,> 100 µM
same,TGI,UACC-257 melanoma,> 100 µM
same,TGI,UACC-62 melanoma,> 100 µM
same,TGI,UO-31 renal,> 100 µM
